Measured values: patent US20220372491A1, “TREATMENT OF RENAL CYSTIC DISEASE” (MONASH UNIVERSITY, priority 2019, published 2022)

What was measured:
[1] = test system: adult mouse models of ADPKD; conditions: cited from earlier work
[2] = test system: Inpp5e^Δ/Δ; Aurka^Δ/Δ mice; experiment: Oral Alisertib treatment of Inpp5e^Δ/Δ; Aurka^Δ/Δ (double mutant) mice; format: in vivo, mouse
Description: (§1) Alisertib treatment was performed based on previously published protocols (Nikonova et al., (2014) PNAS 111:12859-12864; Nikonova (2015) Frontiers Oncol. 5:228), as follows: Starting at P9 Inpp5e^Δ/Δ and Inpp5e^Δ/Δ mice were treated once daily for 5 days with Alisertib delivered orally by pipette in a suspended solution with a final composition of 3.6 mg/ml Alisertib ([…], Selleck Chemicals) in 10% 2-hydroxypropyl-β-cyclodextrin ([…]-10ML, Sigma-Aldrich) with 1% (vol/vol) sodium bicarbonate ([…]-100ML, Sigma-Aldrich) and 5% glucose (49163-100ML, Sigma-Aldrich). Mice were dosed with a volume to deliver Alisertib at 10 mg/kg. Mouse body weights were recorded daily. Solutions were stored at 4 degrees for up to 1 month. […] Mice were then given 2 recovery days before being sacrificed at P15. This time frame was selected as it corresponded to an exponential rise in cyst number in Inpp5e^Δ/Δ mice. Aurka^Δ/Δ and Inpp5e^Δ/Δ; Aurka^Δ/Δ treatment groups were also included to determine the AURKA specificity of any phenotypes observed given Alisertib's broad drug targeting profile. Mice were culled via cervical dislocation or decapitation, as most appropriate for their age following ethical guidelines. Procedures were all conducted by ethically approved and trained personnel. Mice were measured for body weight, with ear tissue, urine and kidneys collected. Ear tissue and urine was stored at -20 degrees. Newborn and P4 kidneys were fixed whole in 4% PFA for 16 hrs at 4 degrees, while the kidney capsule membrane was removed from older mouse kidneys, with the kidney cut into halves and fixed in 10% NBF for 16 hrs at room temperature. Half the kidney samples were sent for histological processing and the other half were snap frozen and stored at -80 degrees until processed for RNA, alpha analysis and/or western blotting. Kidney tissues were paraffin imbedded and sectioned at 4 μm for most analysis with the exception of being sectioned at 10 μm for cilia analysis. Antigen retrieval was performed in Citrate buffer pH6 using Tefal pressure cooker or using a DAKO […] system as indicated. Antibody staining was performed as described elsewhere (Cottle et al., (2013) Cell reports, 3: 427-441), except triton x-100 was included in blocking buffers, and cover slips mounted using Prolong Gold (Invitrogen). Antibodies and stains are listed below. Imaging was using an Aperio brightfield and fluorescent scanners (MHP), Olympus Fluoview 500 (Biochemistry Imaging Suite), Nikon C2 or Leica SP8 confocal microscope (MMI). All quantifications with the exception of Nanostring analysis and Chi squared tests for analysis of mendelian ratios, were analyzed using the unpaired Student's t-test assuming unequal variance in Microsoft Excel and P≤0.05 values were considered significant. One or two tailed tests were selected as appropriate for hypothesis. Values presented are Mean±Standard Error of the Mean (S.E.M). 2K/BW % was calculated as the combined kidney weight over total body weight percentage. Albumin Creatinine Ratios (ACR) were calculated as μg Albumin over mg of Creatinine. Cyst identity was measured as a proportion of cyst epithelial area for each marker out of total sum of cyst epithelial areas of all markers (adjusted for marker co-localisation). Cystic index % is calculated as the proportion of cystic space occupied out of total kidney area in DBA-stained kidney longitudinal cross-sections. Cyst number reflects the average number of cysts counted per DBA-stained longitudinal kidney cross section. Cyst size is the average cross-sectional cyst size (mm^2) of cysts sampled from DBA-stained kidney longitudinal cross sections. Due to escape of Cre activity at the Aurka locus in cysts, unless otherwise indicated references to Inpp5e^Δ/Δ; Aurka^Δ/Δ immunostains and their quantifications reflect non-cystic regions throughout this study.

Inpp5e^Δ/Δ mice = experiment: Oral Alisertib treatment of Inpp5e^Δ/Δ mice (Joubert Syndrome associated PKD model); format: in vivo, mouse
Description: as §1

mIMCD3 cells = experiment: Western blots and densitometry of mIMCD3 cell lysates treated with Alisertib; format: cell-based, mouse
Description: mIMCD3 cells were grown as previously described (Plotnikova et al., (2015) J. Cell Sci. 128: 364-372). Using a hemocytometer, mIMCD3 cells were seeded in 6 well dishes at 1.3×10^5 cells per well in growth media and incubated overnight at 37° C. in 5% CO2. Lipofectamine 3000 Reagent kit (Invitrogen) was used for plasmid transfection according to manufacturer's protocol (3.75 μl of Lipofectamine 3000, 2.5 μg DNA and 5 μl of P3000 reagent in each well). siRNA transfections were also performed with Lipofectamine 3000 (Invitrogen) according to manufacturer's protocol (0.75 μl of Lipofectamine 3000, 25 pmol siRNA in each well). Plasmids included pCGN (HA-tag)^48, pCGN-HA-AURKA (gift from Olga Plotniknova), and pCGN-HA-AURKA KD (made in this study using Q5 Site-Directed Mutagenesis Kit NEB.E0554S according to manufacturer's protocol to contain the K162R variant described for pCDNA3.1-mRFP-AURKA K162R). All plasmids were prepared with Qiagen plasmid midiprep kits. siRNAs were All Stars negative control siRNA (S103650318, Qiagen) and Mm_Aurka_1 Flexitube siRNA (S100908803, Qiagen). Alisertib (10 mM in DMSO, S1133, SelleckChem) was added to media at 1 μM final concentration where indicated.
Following ˜16 hrs after plasmid and siRNA transfections, fresh growth media was placed on mIMCD3 cells and wells harvested up to 24 hrs later. Alternatively, for serum-starvation conditions, 0.5% serum containing was placed on mIMCD3 cells and wells harvested after 24 hrs. For serum-restimulation conditions mIMCD3 cells were first placed in 0.5% serum media for 24 hrs before addition of fresh growth media for up to 20 mins before harvest. For immunofluorescence experiments, mIMCD3 cells were grown on collagen I-coated 22×22 mm coverslips and processed as described in Cottle et al., (2007) J. Cell Sci. 120: 1423-1435 and Wiradjaja et al., (2013) Disease models & mechanisms, 6: 1426-1433).
Tissue extracts were prepared in AlphaLISA Surefire Ultra lysis buffer. Cell extracts were prepared in 1% Triton X-100 in Tris-buffered saline pH7.4 with Roche complete mini protease and PhosSTOP inhibitor tablets as described above. Immunoblotting was performed using standard techniques, with antibodies listed below. Densitometry values were determined using ImageJ software and occasional extreme outliers more than 2 standard deviations from the mean omitted.

[3] = Solubility of Alisertib in the oral dosing vehicle; format: physicochemical; conditions: 3.6 mg/ml in 10% 2-hydroxypropyl-β-cyclodextrin, 1% sodium bicarbonate, 5% glucose
Description: Alisertib treatment was performed based on previously published protocols (Nikonova et al., (2014) PNAS 111:12859-12864; Nikonova (2015) Frontiers Oncol. 5:228), as follows: Starting at P9 Inpp5e^Δ/Δ and Inpp5e^Δ/Δ mice were treated once daily for 5 days with Alisertib delivered orally by pipette in a suspended solution with a final composition of 3.6 mg/ml Alisertib (S1133, Selleck Chemicals) in 10% 2-hydroxypropyl-β-cyclodextrin (H5784-10ML, Sigma-Aldrich) with 1% (vol/vol) sodium bicarbonate (S8761-100ML, Sigma-Aldrich) and 5% glucose (49163-100ML, Sigma-Aldrich). Mice were dosed with a volume to deliver Alisertib at 10 mg/kg. Mouse body weights were recorded daily. Solutions were stored at 4 degrees for up to 1 month. […] Mice were then given 2 recovery days before being sacrificed at P15. This time frame was selected as it corresponded to an exponential rise in cyst number in Inpp5e^Δ/Δ mice. Aurka^Δ/Δ and Inpp5e^Δ/Δ; Aurka^Δ/Δ treatment groups were also included to determine the AURKA specificity of any phenotypes observed given Alisertib's broad drug targeting profile.

[4] = double mutant mice, relative to vehicle controls
[5] = mice in which Aurka had been predominantly deleted, 10 mg/kg orally P9 to P13, P15
[6] = Inpp5e^Δ/Δ mice, 10 mg/kg orally P9 to P13, P15, vs vehicle
[7] = 1 μM Alisertib, 48 hrs, growth conditions

- solubility in dosing vehicle [3]: largely insoluble
Compound: COc1cc(Nc2ncc3c(n2)-c2ccc(Cl)cc2C(c2c(F)cccc2OC)=NC3)ccc1C(=O)O [Alisertib]
- cystic disease [1]: exaggerates cystic disease
- AKT pT308 expression [2, 4]: did not show reduced ciliation or AKT pT308 expression
- ciliation [2, 4]: did not show reduced ciliation
- cyst index [2, 5]: No change
- cyst number [2, 5]: No change
- cyst size [2, 5]: No change
- kidney to body weight ratio [2, 5]: No change
- levels of nuclear localised active p53 in collecting duct cells (Inpp5e^Δ/Δ mice; 10 mg/kg orally once daily P9 to P13, tissue at P15): increased levels of nuclear localised active p53
- cilia number (% ciliated collecting duct cells) (Inpp5e^Δ/Δ mice; Inpp5e^Δ/Δ kidneys, vs vehicle): markedly reduced cilia number
- co-expression of high levels of AURKA and AKT pT308 in collecting duct cells (Inpp5e^Δ/Δ mice; Inpp5e^Δ/Δ kidneys, vs vehicle): increased co-expression of high levels of AURKA and AKT pT308
- cyst size (Inpp5e^Δ/Δ mice; [6]): reduced cyst size
- kidney to body weight ratio and kidney size (Inpp5e^Δ/Δ mice; [6]): marked reduction in kidney to body weight ratio and kidney size
- number of cysts (Inpp5e^Δ/Δ mice; [6]): increased in the number of cysts
- hair loss (Inpp5e^Δ/Δ mice; all Alisertib-treated mouse cohorts vs vehicle, 10 mg/kg orally once daily P9 to P13, tissue at P15): hair loss observed in all treated mouse cohorts
- cystic index % (Inpp5e^Δ/Δ mice; cystic genotypes Inpp5e^Δ/Δ and Inpp5e^Δ/Δ, Aurka^Δ/Δ, vs vehicle): no Alisertib-induced changes
- AURKA protein level (mIMCD3 cells; 1 μM Alisertib, 48 hrs of exposure, growth conditions): two-fold increase in AURKA protein
- AKT phosphorylation at S473 (AKT pS473/total AKT expression ratio) (mIMCD3 cells; [7]): but not S473
- AKT phosphorylation at T308 (AKT pT308/total AKT expression ratio) (mIMCD3 cells; [7]): increasing AKT phosphorylation at T308
- total AKT (mIMCD3 cells; [7]): modestly reducing total AKT
- rebound increase of AKT T308 phosphorylation (mIMCD3 cells; 24 hrs of Alisertib exposure): not observed following 24 hrs of Alisertib exposure
- AURKA T288 phosphorylation ratio (mIMCD3 cells; Alisertib or vehicle for 48 hrs under growth conditions): reduces the AURKA T288 phosphorylation ratio
